IC50 data for 23 compounds are collected here from patent publication US7666875B2, “Hydantoin compounds” (Eisai R&D Management Co., Ltd., priority 2005, dated 2010).

This experiment has as its target T1, human T-bet (Homo sapiens, UniProt Q9UL17).
T1 construct: expressed in transfected cells; host or cells: engineered HEK cells (HEKT-bet)
T1 sequence (Q9UL17 1-535): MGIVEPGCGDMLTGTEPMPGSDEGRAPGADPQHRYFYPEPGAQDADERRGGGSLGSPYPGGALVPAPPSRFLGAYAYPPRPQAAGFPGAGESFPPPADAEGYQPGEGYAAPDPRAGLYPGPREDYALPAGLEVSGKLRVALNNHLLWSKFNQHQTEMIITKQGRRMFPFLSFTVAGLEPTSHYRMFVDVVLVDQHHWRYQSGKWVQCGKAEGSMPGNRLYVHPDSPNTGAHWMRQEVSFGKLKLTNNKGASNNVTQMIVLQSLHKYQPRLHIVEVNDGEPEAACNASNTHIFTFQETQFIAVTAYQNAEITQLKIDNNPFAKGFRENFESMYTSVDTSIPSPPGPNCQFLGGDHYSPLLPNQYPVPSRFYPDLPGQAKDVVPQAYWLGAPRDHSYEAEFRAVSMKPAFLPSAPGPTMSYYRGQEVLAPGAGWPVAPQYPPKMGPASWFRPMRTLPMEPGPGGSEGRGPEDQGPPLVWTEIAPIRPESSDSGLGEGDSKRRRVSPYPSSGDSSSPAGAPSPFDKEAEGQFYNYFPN
The experiment is described as follows: HEKT-bet-luc assay (T-bet dependent luciferase reporter in engineered HEK cells). In kind it is cell-based. The settings on record: HEKT-bet cells, compound 24 hours, IC50 normalized to reference ER-213038, read-out: IC50. In outline:
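HEK cells expressing human T-bet and a T-box element–luciferase reporter were treated with compound for 24 h, then luciferase was read by luminescence. IC50 was scaled between uninhibited signal and maximal inhibition, then normalized to a same-plate reference compound multiplied by its established potency.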
A general note: Reporter assays use an easily measured gene product as a stand-in for the process of interest.

pIC50: −log10 of the molar value. Where two headings read alike, the source gives them in different places.

As usually defined, the pIC50 is the IC50 on a negative log10 scale, so that one unit is a factor of ten. Take `COc1cc(CN2CCC3(CC2)C(=O)N(Cc2cc(OC)cc(OC)c2)C(=O)N3Cc2ccc3c(c2)nnn3C)cc(OC)c1` [Example 281]: where the note is “Table 4”, the pIC50 is 6.26.

Regarding `CCN1C(=O)N(CCCc2ccccc2)C(=O)C12CCN(Cc1cccc(OC)c1)CC2` [Example 282], the pIC50 (Table 4) is 6.26.

In the case of `COCCN1C(=O)N(Cc2cccc(OC)c2)C(=O)C12CCN(Cc1ccc(-c3ccccc3)cc1)CC2` [Example 283], the pIC50 (Table 4) is 6.26.

On to `COCCN1C(=O)N(CCCc2ccccc2)C(=O)C12CCN(Cc1ccc3ccccc3c1)CC2` [Example 284], for which, under “Table 4”, the pIC50 is 6.26.

As to `COc1cccc(CN2C(=O)N(CCCO)C3(CCN(Cc4cc(OC)cc(OC)c4)CC3)C2=O)c1` [Example 285], the pIC50 (Table 4) was 6.26.

In the case of `CCN1C(=O)N(Cc2ccc3ccccc3c2)C(=O)C12CCN(Cc1cccc3ccccc13)CC2` [Example 286], the pIC50 (Table 4) is 6.25.

As for `CCN1C(=O)N(CCc2cc(OC)cc(OC)c2)C(=O)C12CCN(Cc1cc(OC)cc(OC)c1)CC2` [Example 287], the pIC50 (Table 4) was 6.25.

In the case of `COc1cc(CN2CCC3(CC2)C(=O)N(Cc2cc(OC)cc(OC)c2)C(=O)N3Cc2ccc(-n3cccn3)cc2)cc(OC)c1` [Example 288], the pIC50 (Table 4) was 6.25.

For `COCCN1C(=O)N(Cc2cccc(OC)c2)C(=O)C12CCN(Cc1c(F)ccc(C)c1Cl)CC2` [Example 289], the negative logarithm of the IC50 (pIC50) (Table 4) was 6.25.

With `COCCN1C(=O)N(Cc2cccc(OC)c2)C(=O)C12CCN(Cc1cccc3c1OCCO3)CC2` [Example 290], the negative logarithm of the IC50 (pIC50) (Table 4) is 6.25.

As for `COCCN1C(=O)N(CCCc2ccccc2OC)C(=O)C12CCN(Cc1ccccc1)CC2` [Example 291], for the setting “Table 4”, the pIC50 was 6.24.

Turning to `COCN1C(=O)N(Cc2cc(OC)cc(OC)c2)C(=O)C12CCN(Cc1cccc(OC)c1)CC2` [Example 292], the pIC50 (Table 4) was 6.24.

Turning to `COc1cccc(CN2C(=O)N(Cc3ccccc3)C3(CCN(Cc4cc(OC)cc(OC)c4)CC3)C2=O)c1` [Example 293], the pIC50 (Table 4) was 6.24.

Turning to `O=C1N(/C=C/Cc2ccccc2)C(=O)C2(CCN(Cc3cccc4ccccc34)CC2)N1CCO` [Example 294], the pIC50 (Table 4) was 6.24.

For `COCCN1C(=O)N(Cc2cccc(OC)c2)C(=O)C12CCN(Cc1cccc3c4ccccc4n(C)c13)CC2` [Example 295], the pIC50 (Table 4) was 6.24.

As for `COCN1C(=O)N(/C=C/Cc2ccccc2)C(=O)C12CCN(Cc1cc(OC)cc(OC)c1)CC2` [Example 296], under “Table 4”, the pIC50 was 6.23.

Turning to `COc1cccc(CN2C(=O)N(Cc3cccc(OC)c3)C3(CCN(Cc4ccccc4)CC3)C2=O)c1` [Example 297], the pIC50 (Table 4) is 6.23.

In the case of `CNc1cccc(CN2CCC3(CC2)C(=O)N(Cc2cccc(OC)c2)C(=O)N3CCOC)c1` [Example 298], the pIC50 (Table 4) is 6.23.

As for `COc1cccc(CN2C(=O)N(Cc3cccc(OC)c3)C3(CCN(Cc4cccc5ccccc45)CC3)C2=O)c1` [Example 299], the pIC50 (Table 4) is 6.22.

For the compound `COCCN1C(=O)N(CCCc2ccccc2)C(=O)C12CCN(Cc1cccc(OC)c1)CC2` [Example 300], the pIC50 (Table 4) is 6.22.

Turning to `COCCN1C(=O)N(Cc2cccc(OC)c2)C(=O)C12CCN(Cc1cccc(OC)c1F)CC2` [Example 301], the pIC50 (Table 4) was 6.22.

For the compound `COc1cc(CN2CCC3(CC2)C(=O)N(C/C=C/c2ccccc2)C(=O)N3Cc2ccc(-n3cccn3)cc2)cc(OC)c1` [compound 41], under “Table 2”, the pIC50 is 7.35.

As for `COc1cc(CN2CCC3(CC2)C(=O)N(C/C=C/c2ccccc2)C(=O)N3CCO)cc(OC)c1` [compound 45], the pIC50 (Table 2) is 7.21.
